Assay [1] addresses T1, CnAcs1 (acetyl CoA synthetase) (Cryptococcus neoformans, UniProt J9VFT1).
T1 construct: gene CNAG_00797; His-tagged recombinant CnAcs1 expressed in E. coli
T1 sequence (J9VFT1 1-680): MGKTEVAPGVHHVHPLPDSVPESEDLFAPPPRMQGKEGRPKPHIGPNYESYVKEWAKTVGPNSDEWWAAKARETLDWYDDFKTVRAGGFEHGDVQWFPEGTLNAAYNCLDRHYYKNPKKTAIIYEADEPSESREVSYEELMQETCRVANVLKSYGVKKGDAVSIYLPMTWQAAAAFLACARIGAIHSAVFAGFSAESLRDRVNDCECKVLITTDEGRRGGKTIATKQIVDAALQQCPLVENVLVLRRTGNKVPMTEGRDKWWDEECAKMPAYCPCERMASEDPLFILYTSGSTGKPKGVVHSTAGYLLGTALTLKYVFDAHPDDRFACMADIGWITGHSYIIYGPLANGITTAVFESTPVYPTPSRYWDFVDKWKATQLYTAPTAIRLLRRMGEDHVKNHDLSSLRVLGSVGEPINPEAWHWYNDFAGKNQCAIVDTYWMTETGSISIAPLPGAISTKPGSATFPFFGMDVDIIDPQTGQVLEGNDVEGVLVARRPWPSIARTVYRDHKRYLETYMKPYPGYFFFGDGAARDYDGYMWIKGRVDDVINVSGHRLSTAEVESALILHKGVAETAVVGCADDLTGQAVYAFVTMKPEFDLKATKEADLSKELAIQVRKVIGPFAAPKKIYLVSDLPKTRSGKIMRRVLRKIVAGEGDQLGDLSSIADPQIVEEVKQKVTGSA
Description: coupled pyrophosphate-release enzyme assay. The assay is classed as biochemical.

Assay [2] deals with T1, CnAcs1 (acetyl CoA synthetase). Description: X-ray co-crystal structure. The assay is classed as biochemical. The following applies: cited from earlier work. The source says: X-ray co-crystal structure on CnAcs1 (acetyl CoA synthetase) | we obtained an X-ray crystal structure of CnAcs1 bound to the cyclopropyl-AMP ester
In assay [3] the target is Cryptococcus neoformans Acs1 (acetyl CoA synthetase) (C. neoformans). Briefly: mass photometry; single molecule, in solution, to low concentrations; with and without supra-inhibitory isoxazole 1 (apparent size unchanged).
For assay [4] the target is unchanged. Description: crystal structure; co-crystal of CnAcs1 (10 mg/mL in 20 mM NaCl, 20 mM Tris pH 8.5, 1 mM TCEP) with 2 mM isoxazole 1; sitting drop vapor diffusion at 18 °C; PDB 9CD8.

As usually defined, the IC50 is the concentration needed to halve the response being measured. For the compound `O=C(NNC(=O)c1csnn1)c1ccc(Cl)cc1` [MMV084978], half-maximal inhibition in assay [1] (IC50) was put at 2.8 µM.
Consider `Nc1ncnc2c1ncn2[C@@H]1O[C@H](COP(=O)(O)OC2CC2)[C@@H](O)[C@H]1O` [cyclopropyl-AMP], for which, in assay [2], the IC50 was 9 µM.
Broadly, the stoichiometry N is a count of units in the complex or per binding partner. Consider “Cryptococcus neoformans Acs1 (acetyl CoA synthetase) (enzyme)”, for which the stoichiometry N in assay [3] and in assay [4] was 3 throughout.
